Measurements as given in PubChem BioAssay AID1845199 (Molecular Pharmacology Branch, DTP, NCI, 2023).
pIC50: −log10 of the molar value.

Tested on: 556581-035-R-J1 tumor spheroid viability, % test/control
Test: Anticancer human tumor 556581-035-R-J1 patient-derived ovarian carcinoma cell line growth inhibition
Details: spheroids with HUVEC and MSC; for pIC50: curve of first compound; for viability, T/C: stronger effect = lower value; active means viability on the fitted dose curve at most 10% of control; inactive means the rest
Summary of the method: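 Complex spheroids of malignant cells with endothelial cells and mesenchymal stem cells; agents alone or combined, from near clinical Cmax (or 10 microM if unknown) down in half-log steps, 0.25% DMSO final.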

[1] = second compound 1 µM, first compound 0.0316 µM
[2] = second compound 1 µM, first compound 0.1 µM
[3] = second compound 1 µM, first compound 0.316 µM
[4] = second compound 1 µM, first compound 1 µM
[5] = second compound 1 µM, first compound 3.16 µM
[6] = second compound 1 µM, first compound 10 µM
[7] = second compound 3.16 µM, first compound 0.0316 µM
[8] = second compound 3.16 µM, first compound 0.1 µM
[9] = second compound 3.16 µM, first compound 0.316 µM
[10] = second compound 3.16 µM, first compound 1 µM
[11] = second compound 3.16 µM, first compound 3.16 µM
[12] = second compound 3.16 µM, first compound 10 µM
[13] = second compound 10 µM, first compound 0.0316 µM
[14] = second compound 10 µM, first compound 0.1 µM
[15] = second compound 10 µM, first compound 0.316 µM
[16] = second compound 10 µM, first compound 1 µM
[17] = second compound 10 µM, first compound 3.16 µM
[18] = second compound 10 µM, first compound 10 µM
[19] = second compound 31.6 µM, first compound 0.0316 µM
[20] = second compound 31.6 µM, first compound 0.1 µM
[21] = second compound 31.6 µM, first compound 0.316 µM
[22] = second compound 31.6 µM, first compound 1 µM
[23] = second compound 31.6 µM, first compound 3.16 µM
[24] = second compound 31.6 µM, first compound 10 µM
[25] = second compound 100 µM, first compound 0.0316 µM
[26] = second compound 100 µM, first compound 0.1 µM
[27] = second compound 100 µM, first compound 0.316 µM
[28] = second compound 100 µM, first compound 1 µM
[29] = second compound 100 µM, first compound 3.16 µM
[30] = second compound 100 µM, first compound 10 µM
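Further: spheroids exposed to compounds for 7 days before viability read.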

CC(C)n1c(=O)n(C)c2cnc3cc(F)c(-c4ccc(OCCCN5CCCCC5)nc4)cc3c21 + Cn1nnc2c(C(N)=O)ncn2c1=O
< 5.00: pIC50 (second compound 1 µM) | pIC50 (second compound 3.16 µM) | pIC50 (second compound 10 µM) | pIC50 (second compound 31.6 µM) | pIC50 (second compound 100 µM)
inactive: viability, T/C [1] 109% | viability, T/C [2] 109% | viability, T/C [3] 109% | viability, T/C [4] 106% | viability, T/C [5] 98.5% | viability, T/C [6] 70.2% | viability, T/C [7] 101% | viability, T/C [8] 112% | viability, T/C [9] 101% | viability, T/C [10] 112% | viability, T/C [11] 96.6% | viability, T/C [12] 62.3% | viability, T/C [13] 102% | viability, T/C [14] 109% | viability, T/C [15] 105% | viability, T/C [16] 104% | viability, T/C [17] 95.5% | viability, T/C [18] 67.3% | viability, T/C [19] 108% | viability, T/C [20] 106% | viability, T/C [21] 103% | viability, T/C [22] 112% | viability, T/C [23] 92.7% | viability, T/C [24] 65.8% | viability, T/C [25] 105% | viability, T/C [26] 106% | viability, T/C [27] 99.6% | viability, T/C [28] 101% | viability, T/C [29] 90.1% | viability, T/C [30] 69.1%

COc1ccc([C@@H](O)c2cc(-c3ncnc4cc(N5CCOCC5)ccc34)c(F)cc2Cl)nn1 + Cn1nnc2c(C(N)=O)ncn2c1=O
5.59: pIC50 (second compound 3.16 µM)
5.58: pIC50 (second compound 1 µM)
5.51: pIC50 (second compound 10 µM)
5.52: pIC50 (second compound 100 µM)
inactive: viability, T/C [1] 115% | viability, T/C [2] 111% | viability, T/C [3] 100% | viability, T/C [4] 70.2% | viability, T/C [5] 47.7% | viability, T/C [6] 34.2% | viability, T/C [7] 105% | viability, T/C [8] 114% | viability, T/C [9] 102% | viability, T/C [10] 71% | viability, T/C [11] 47.4% | viability, T/C [12] 36.2% | viability, T/C [13] 126% | viability, T/C [14] 121% | viability, T/C [15] 113% | viability, T/C [16] 76% | viability, T/C [17] 51.9% | viability, T/C [18] 38.2% | viability, T/C [19] 125% | viability, T/C [20] 123% | viability, T/C [21] 114% | viability, T/C [22] 76.9% | viability, T/C [23] 48.5% | viability, T/C [24] 36.2% | viability, T/C [25] 129% | viability, T/C [26] 122% | viability, T/C [27] 117% | viability, T/C [28] 76.8% | viability, T/C [29] 51.6% | viability, T/C [30] 39.3%
5.55: pIC50 (second compound 31.6 µM)
